From ChEMBL document CHEMBL4507299, “Data for DCP probe PF-04554878” (2021)

How the values were obtained:
[1] = biological target: Tyrosine-protein kinase ABL1 (Homo sapiens, UniProt P00519); assay: ABL Invitrogen kinase activity assay
[2] = biological target: Sodium-dependent dopamine transporter (Homo sapiens) (UniProt Q01959); settings: Compound concentration 10.0 uM
[3] = biological target: cAMP-dependent protein kinase catalytic subunit alpha (Homo sapiens) (UniProt P17612); assay: PKACa Invitrogen kinase activity assay; settings: Compound concentration 1.0 uM
[4] = biological target: T1, Serine/threonine-protein kinase Chk1 (Homo sapiens) (UniProt O14757); assay: CHK1 Invitrogen kinase activity assay; settings: Compound concentration 1.0 uM
T1 sequence (whole entry): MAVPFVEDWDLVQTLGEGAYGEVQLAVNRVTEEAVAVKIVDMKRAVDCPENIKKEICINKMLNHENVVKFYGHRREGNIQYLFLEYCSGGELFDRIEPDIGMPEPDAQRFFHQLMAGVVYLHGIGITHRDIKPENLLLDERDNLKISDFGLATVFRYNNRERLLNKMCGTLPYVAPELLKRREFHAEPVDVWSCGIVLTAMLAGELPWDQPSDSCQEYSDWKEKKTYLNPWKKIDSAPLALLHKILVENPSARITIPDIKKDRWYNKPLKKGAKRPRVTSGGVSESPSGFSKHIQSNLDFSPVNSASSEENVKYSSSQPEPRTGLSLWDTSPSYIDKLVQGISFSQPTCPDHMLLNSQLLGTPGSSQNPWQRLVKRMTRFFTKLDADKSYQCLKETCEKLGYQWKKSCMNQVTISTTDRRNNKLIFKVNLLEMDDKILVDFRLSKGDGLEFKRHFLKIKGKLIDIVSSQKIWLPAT

[5] = biological target: Casein kinase II subunit alpha (Homo sapiens) (UniProt P68400); assay: CK2 Invitrogen kinase activity assay; settings: Compound concentration 1.0 uM
[6] = biological target: Serine/threonine-protein kinase pim-2 (Homo sapiens) (UniProt Q9P1W9); assay: PIM2 Invitrogen kinase activity assay; settings: Compound concentration 1.0 uM
Serine/threonine-protein kinase pim-2 (Homo sapiens), sequence (Q9P1W9 whole entry, looked up): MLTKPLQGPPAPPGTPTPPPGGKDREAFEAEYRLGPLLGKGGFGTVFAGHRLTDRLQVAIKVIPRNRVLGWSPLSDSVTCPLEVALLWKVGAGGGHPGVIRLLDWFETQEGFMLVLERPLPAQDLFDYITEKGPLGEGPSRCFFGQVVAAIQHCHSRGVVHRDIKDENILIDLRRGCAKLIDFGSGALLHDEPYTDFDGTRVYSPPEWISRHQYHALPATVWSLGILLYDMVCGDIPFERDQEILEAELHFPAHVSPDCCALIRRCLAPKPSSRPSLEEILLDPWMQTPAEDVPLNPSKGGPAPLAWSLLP

Tyrosine-protein kinase ABL1, sequence (P00519 whole entry): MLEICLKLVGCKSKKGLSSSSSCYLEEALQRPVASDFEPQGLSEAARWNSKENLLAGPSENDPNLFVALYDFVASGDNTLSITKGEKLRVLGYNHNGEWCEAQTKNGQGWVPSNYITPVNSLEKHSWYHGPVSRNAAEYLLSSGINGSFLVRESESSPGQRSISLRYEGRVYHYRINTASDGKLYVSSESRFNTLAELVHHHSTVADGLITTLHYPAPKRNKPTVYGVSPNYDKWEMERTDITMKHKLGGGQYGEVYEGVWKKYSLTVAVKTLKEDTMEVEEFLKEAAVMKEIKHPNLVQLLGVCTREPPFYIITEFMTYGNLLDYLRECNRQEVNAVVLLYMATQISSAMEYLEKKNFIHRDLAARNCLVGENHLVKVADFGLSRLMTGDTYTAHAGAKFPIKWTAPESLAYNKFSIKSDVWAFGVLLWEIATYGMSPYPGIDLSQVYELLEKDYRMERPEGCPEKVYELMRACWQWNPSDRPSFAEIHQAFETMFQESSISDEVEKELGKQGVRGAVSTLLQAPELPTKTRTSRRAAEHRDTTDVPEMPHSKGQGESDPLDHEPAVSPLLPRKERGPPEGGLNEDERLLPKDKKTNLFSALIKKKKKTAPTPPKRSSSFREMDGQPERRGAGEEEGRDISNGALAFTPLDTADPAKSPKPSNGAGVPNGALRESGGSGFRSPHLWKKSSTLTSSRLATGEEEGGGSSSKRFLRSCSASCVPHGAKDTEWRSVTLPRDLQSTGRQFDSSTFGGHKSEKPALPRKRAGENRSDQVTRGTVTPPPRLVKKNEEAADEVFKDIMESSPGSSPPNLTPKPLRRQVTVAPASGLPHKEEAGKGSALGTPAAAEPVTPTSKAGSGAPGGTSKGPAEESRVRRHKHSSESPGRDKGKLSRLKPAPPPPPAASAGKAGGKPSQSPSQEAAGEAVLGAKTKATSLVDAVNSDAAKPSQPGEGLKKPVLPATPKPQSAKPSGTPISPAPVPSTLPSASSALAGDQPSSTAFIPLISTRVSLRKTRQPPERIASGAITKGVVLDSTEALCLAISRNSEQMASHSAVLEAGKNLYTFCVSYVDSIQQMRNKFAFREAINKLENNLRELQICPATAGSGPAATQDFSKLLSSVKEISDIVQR
Casein kinase II subunit alpha (Homo sapiens), sequence (P68400 whole entry, looked up): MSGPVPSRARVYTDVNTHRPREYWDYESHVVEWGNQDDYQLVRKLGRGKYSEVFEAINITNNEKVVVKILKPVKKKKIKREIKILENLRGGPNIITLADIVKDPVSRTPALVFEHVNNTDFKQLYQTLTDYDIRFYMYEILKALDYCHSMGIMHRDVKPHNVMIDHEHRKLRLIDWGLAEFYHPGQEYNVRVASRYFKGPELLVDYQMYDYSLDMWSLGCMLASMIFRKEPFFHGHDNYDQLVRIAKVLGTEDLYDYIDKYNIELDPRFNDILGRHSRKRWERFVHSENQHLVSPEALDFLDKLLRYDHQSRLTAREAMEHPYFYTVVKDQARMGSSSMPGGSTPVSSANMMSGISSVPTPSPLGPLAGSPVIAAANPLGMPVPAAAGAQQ
Sodium-dependent dopamine transporter (Homo sapiens), sequence (Q01959 whole entry): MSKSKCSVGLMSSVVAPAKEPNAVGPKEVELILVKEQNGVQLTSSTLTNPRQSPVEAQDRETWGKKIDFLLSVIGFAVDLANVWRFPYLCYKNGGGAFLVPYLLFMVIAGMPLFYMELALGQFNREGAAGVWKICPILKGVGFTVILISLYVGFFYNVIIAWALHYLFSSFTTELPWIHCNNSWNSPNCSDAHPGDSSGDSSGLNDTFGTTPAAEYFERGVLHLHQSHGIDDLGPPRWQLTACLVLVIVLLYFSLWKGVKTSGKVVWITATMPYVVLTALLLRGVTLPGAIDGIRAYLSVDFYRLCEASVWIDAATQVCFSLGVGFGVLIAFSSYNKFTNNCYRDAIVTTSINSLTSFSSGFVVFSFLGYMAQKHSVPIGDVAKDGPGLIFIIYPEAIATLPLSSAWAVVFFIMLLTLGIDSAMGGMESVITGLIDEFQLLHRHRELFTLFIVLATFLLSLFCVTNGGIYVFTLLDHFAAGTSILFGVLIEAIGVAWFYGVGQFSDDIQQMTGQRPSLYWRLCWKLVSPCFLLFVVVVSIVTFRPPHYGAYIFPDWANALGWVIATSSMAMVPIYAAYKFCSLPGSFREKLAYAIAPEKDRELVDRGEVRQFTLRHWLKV

CNC(=O)c1ccc(Nc2ncc(C(F)(F)F)c(NCc3nccnc3N(C)S(C)(=O)=O)n2)cc1 [DEFACTINIB] was tested, and the IC50 [1] was 1640 nM, the inhibition ([1]; Compound concentration 1.0 uM) was 34% and the inhibition [2] was -6.06%. For the same molecule, the inhibition [3] was 29%, the inhibition [4] was 23% and the inhibition [5] was 43%. For the same molecule, the inhibition [6] was 0%.
